In patent EP3871678A1, “PRO-ANGIOGENIC COMPOUNDS” (UNIVERSITE DE BORDEAUX, priority 2020, dated 2021):

Columns and labels:
[1] = In vivo toxicity after subcutaneous injection of hydrogels (serum ALT, AST, LDH); design: species or system OF-1 female mice; settings: hydrogels injected subcutaneously in mice, serum markers up to day 21
Protocol: (§1) 10-week-old OF-1 female mice (Charles Rivers, France) were used for this study. Before the bilateral subcutaneous injection of hydrogels, mice were anaesthetized using 4.5% isoflurane gas and maintained throughout surgery at 2.5% isoflurane with a face mask. The animals were depilated before surgery. The three different hydrogels were prepared as mentioned above and collected in 1 ml syringes, when the solution was in viscous form. The hydrogels were injected subcutaneously by 21-gauge needle on the dorsal side of the animals.
The in vivo toxicity of the hydrogels formed from compounds 17, 20 and GNF was investigated by serum biochemical evaluation such as alanine aminotransferase (ALT Activity Assay Kit, Sigma-Aldrich, ref MAK052), aspartate aminotransaminase (AST Activity Assay Kit, Sigma-Aldrich, ref MAK055), and lactate dehydrogenase (LDH Assay Kit, Abcam, ref ab102526). At day 0 before surgery and three-time points after implantation (3, 7, and 21 days), blood was collected from retro-orbital sinus. The blood samples were allowed to clot then followed by centrifugation to collect the serum. The serum was used for analysis as recommended by the manufacturers.

[2] = tested on: blood vessels; assay: In vivo angiogenesis around subcutaneously injected hydrogels (CD31 immunostaining, blood vessel count); settings: hydrogel injected subcutaneously in mice, day 21, CD31 immunostaining, four random regions
Protocol: as §1
Subcutaneous injection was carried out, as indicated in example 3, in order to characterize the behavior of the hydrogels after subcutaneous injection and in situ gelation. Animals were sacrificed by cervical dislocation one or three weeks after injection of the hydrogel. The biomaterials (i.e. hydrogel) together with the skin surrounding the injection point were harvested after 7, or 21 days and embedded in paraffin. Histological sections of skin portions associated to the hydrogel were then stained to assess the degradation pattern, cell infiltration (data not shown) and angiogenesis.
The blood vessels in and around the hydrogels 21 days after implantation were identified by immunolabelling with rabbit anti-CD31 antibody (Abcam, ref ab28364 dilution:1/100) followed by incubation with HRP-conjugated anti-rabbit secondary antibody (Vector MP-7401, dilution:1/2)
During the regeneration process, the development of neovessels in the remodeling tissue is of major importance. Therefore, immunostaining of CD31, an endothelial cell marker, was performed on day 21 to assess angiogenesis.
CD31 positive cells were not found inside the hydrogels, showing that the non-degraded hydrogels were bad substrates for blood vessel ingress. Figure 11B depicts the quantification of blood vessels counted manually per 0.2mm^2 at four different random regions in the tissue surrounding each hydrogel. […]

[3] = tested on: CAM of chick embryos (Gallus gallus); assay: Chick chorioallantoic membrane (CAM) angiogenesis assay; assay type: in vivo; settings: 20 µl of 500 µg/ml in DMEM on day 13 and 14, evaluated day 17, versus DMEM control
Protocol: The angiogenesis assay was performed on the CAM of chick embryos (Gallus gallus) (E.A.R.L. Morizeau, Dangers, France). Embryos were incubated at 37°C and 70% humidity to […]. On day 3 of development, 3-5 ml of egg white was withdrawn by punctuating the air chamber with the syringe, and a window was made by cutting the eggshell and sealed with Durapore® tape. On day 13, prepared plastic rings (made from Nunc Thermanox® coverslips, diameter 13 mm and thickness 0.2mm) were placed on the intact CAM. 20 µl of the molecule (concentration 500 µg/ml in DMEM medium) or an equivalent volume of DMEM alone as control were deposited in the center of the plastic rings. The treatment was repeated the following day followed by photo documentation (day 14). On day 17, the eggs were fixed by addition of 2 ml of 4% paraformaldehyde (Antigenfix) for 30 min at room temperature. Imaging was performed with a stereomicroscope (Nikon SMZ800) using a digital camera (Nikon Coolpix 950). The images were scored for morphological changes of blood capillaries such as sprouting and tortuosity (0=normal, 1=overrepresented) by five observers using a blinded screening test (data not shown).
The angiogenic response was evaluated on day 17 based on two morphological parameters: sprouting, and presence of tortuous vessels (data not shown). […]

[4] = In vitro degradation of the hydrogels (weight loss in PBS); assay type: physicochemical; settings: hydrogel 1.5% (w/v), PBS 1X, after 3 weeks at 37°C
Protocol: Hydrogels were prepared with compound 17, compound 20, GNF at a concentration of 1.5% (w/v) by dissolving the powder in sterile phosphate buffered saline solution (PBS 1X, pH 7.4). The suspensions were heated at 65 °C for GNF and 80°C for the compounds 17 and 20. The GNF solution was incubated at 37 °C for 30 min to form a gel, whereas the other molecules formed the gel within 5 min.
Hydrogels were also prepared from compound A, which was used as a control.
Hydrogel disks (100 µl) were prepared and were incubated in 7 ml of PBS 1X at 37°C for 21 days. All the hydrogel samples were weighed before incubating with the phosphate buffer (initial weight). The samples were removed at different time points (1, 2, 3, 5, 7, 15, and 21 days), weighed immediately after removing the excess of PBS by gently touching the surface of a tissue (Kimwipes™) and put back in the same solution of PBS.
The degradation was monitored by measuring the weight loss of the gels after different periods of incubation. After 3 weeks at 37°C, the remaining weights were 65 ± 4 %, 63 ± 1 %, and 55 ± 2 %, for GNF, compound 17 and compound 20, respectively, as shown on Figure 3..

[5] = MALDI-TOF analysis of degradation products released by the hydrogels in PBS; settings: hydrogel, 21-day incubation in PBS at 37°C, MALDI-TOF of the buffer
Protocol: The degradation products generated during the 21-day incubation of the samples was determined by analyzing the PBS solution in which they were incubated. At day 21 the PBS was collected and analyzed for the degradation products of individual hydrogels by using mass spectroscopy. Studies, performed in triplicates, allowed for the calculation of degradation kinetics.
In order to assess the fragmentation of the molecules during incubation, the by-products of degradation present in the buffer were analysed by MALDI-TOF (Matrix Assisted Laser Desorption Ionization - Time of Flight) mass spectrometry at the end of the experiment (21 days) (Figures 4 and 5).
The analyses were carried out on the MALDI-TOF-TOF Ultraflex (Bruker) in positive reflector mode (detection of positively charged species in the form of [M + H] + and [M + Na] + ions).The external calibration of the spectrometer was carried out with a mixture of components in the mass range m / z 700-2500. The matrix used is a solution of 2,4,6 trihydroxyacetophenone at 20 mg / ml in EtOH / NH4 citrate 25 mM. The samples were diluted by a factor of 50 in water before MS analysis.

## 1,14-bis-tetradecanyl-5'-[(4-methylamide)-1H-1,2,3-triazol-1-yl]-N-3-[1-((β-D-glucopyranoside)-1H-1,2,3-triazole-4-yl)methyl]-5'-deoxy thymidine [compound 20]
[1]
  toxicity to the vital organs: did not show any toxicity to the vital organs
[2]
  numbers of blood vessels (bv) in the vicinity of the hydrogel: 7.95 ± 0.74 bv/0.2 mm2

## Cc1cn([C@H]2C[C@H](O)[C@@H](CO)O2)c(=O)n(Cc2cn([C@@H]3O[C@H](CO)[C@@H](O)[C@H](O)[C@H]3O)nn2)c1=O [GN-1, N-3-[1-((β-D-Glucopyranoside)-1H-1,2,3-triazol-4-yl)methyl] thymidine]
[3]; p = 0.0046 (Fisher's exact test)
  sprouting: more CAMs that were treated with GN-1 exhibited sprouting and tortuous vessels
[3]; p = 0.0195 (Fisher's exact test)
  tortuous vessels: more CAMs that were treated with GN-1 exhibited sprouting and tortuous vessels

## Cc1cn([C@H]2C[C@H](O)[C@@H](Cn3cc(CNC(=O)CCC(F)(F)C(F)(F)C(F)(F)C(F)(F)C(F)(F)C(F)(F)C(F)(F)C(F)(F)F)nn3)O2)c(=O)n(Cc2cn([C@@H]3O[C@H](CO)[C@@H](O)[C@H](O)[C@H]3O)nn2)c1=O [GNF]
[4]
  remaining weights: 65 ± 4%
[1]
  toxicity to the vital organs: did not show any toxicity to the vital organs
[2]
  numbers of blood vessels (bv) in the vicinity of the hydrogel: 6.10 ± 1.07 bv/0.2 mm2
[5]
  fragmentation of the molecules during incubation (degradation products): fragmentations of the hydrogel molecules as a result of degradation

## Cc1cn([C@H]2C[C@H](O)[C@@H](Cn3cc(CNC(=O)NCCCCCCCCCCCCNC(=O)NCc4cn(C[C@H]5O[C@@H](n6cc(C)c(=O)n(Cc7cn([C@@H]8O[C@H](CO)[C@@H](O)[C@H](O)[C@H]8O)nn7)c6=O)C[C@@H]5O)nn4)nn3)O2)c(=O)n(Cc2cn([C@@H]3O[C@H](CO)[C@@H](O)[C@H](O)[C@H]3O)nn2)c1=O [compound 17, 1,12-bis-dodecanyl-5'-[(4-methylurea)-1H-1,2,3-triazol-1-yl]-N-3-[1-((β-D-glucopyranoside)-1H-1,2,3-triazole-4-yl)methyl]-5'-deoxy thymidine]
[1]
  toxicity to the vital organs: did not show any toxicity to the vital organs
[2]
  numbers of blood vessels (bv) in the vicinity of the hydrogel: 4.30±0.41 bv/0.2 mm2
[5]
  fragmentation of the molecules during incubation (degradation products): fragmentations of the hydrogel molecules as a result of degradation
